Measured values from patent US20110027354A1, “ANTI-PA[…]” (priority 2008, published 2011).
Entries after “also recorded” stand apart in the source; their conditions may differ.

Tests used:
mice [1] = test: Locomotor activity after repeated treatment with drug alone; format: in vivo; details: repeated treatment i.p./day×7, selegiline or MPPE 2.5 or 5.0 mg/kg, MA 0.5 or 1.0 mg/kg; for locomotor activities: vs. saline
Protocol: Selegiline or […] was injected (2.5 or 5 mg/kg, i.p.) once a day for 7 consecutive days. Methamphetamine, a positive control, was also administered (0.5 or 1 mg/kg, i.p.) once a day for 7 days.
(§1) Locomotor activity measured for 30 min one day after the last MPTP administration using an automated video-tracking system (Noldus Information Technology, Wagenin, The Netherlands). Eight test boxes (40×40×30 cm high) were operated simultaneously by an IBM computer. Animals were studied individually during locomotion in each test box, where they were adapted for 5 min before starting the experiment. […] The distance traveled in cm by the animals in horizontal locomotor activity was analyzed. Data were collected and analyzed between 09:00 and 17:00 h (Kim et al., 2001).

mice [2] = test: Conditioned place preference (CPP); format: in vivo; details: selegiline or MPPE 2.5 or 5.0 mg/kg i.p., MA 0.5 or 1.0 mg/kg i.p.; vs. saline
Protocol: For conditioned place preference (CPP) test, mice received an i.p. injection of saline just before entering the […] compartment. MA (0.5 or 1.0 mg/kg, i.p.), selegiline (2.5 or 5.0 mg/kg, i.p.), and MPPE (2.5 or 5.0 mg/kg, i.p.) dissolved in saline was administered immediately before the mice were placed in the white compartment. On day 1, the mice were pre-exposed to the test apparatus for 15 minutes. The guillotine style doors were raised and mice were allowed to move freely between the two compartments. On day 2, the time each mouse spent in each compartment was recorded for 15 minutes. On days 3, 5, 7, 9, 11, and 13, the mice were injected with each drug before being confined to the white compartment, the non-preferred side, for 40 minutes. On day 14, the guillotine doors were raised. The mice were initially placed in the tunnel and the time spent by the mice in the two compartments was recorded for 15 minutes. The scores were calculated from the differences in the time spent in the white compartment in the testing and pre-testing phases. Data were analyzed between 09:00 and 17:00 hours.

MPTP-treated mice [3] = test: MPTP-induced hypolocomotion (locomotor activity); format: in vivo; details: for effect on MPTP-induced hypolocomotor activity: 2.5 mg/kg/i.p./day×9, vs. MPTP alone
Protocol: as §1

[4] = tested on: dopamine (DA), DOPAC and HVA in the striatum; test: HPLC analysis of striatal DA, DOPAC and HVA; format: in vivo, mice; details: for effect on MPTP-induced increase of DA turnover rate / effect on MPTP-induced reduction of DOPAC / effect on MPTP-induced reduction of HVA / effect on MPTP-induced reduction of dopamine (DA): 2.5 mg/kg i.p., vs. MPTP alone; for effect on MPTP-induced reduction of dopamine (DA): 2.5 mg/kg; for levels of DA, DOPAC, HVA: drug alone (no MPTP)
Protocol: At 1 day after last MPTP injections mice were killed by cervical dislocation, the brains were removed and placed on an ice-cooled plate. Striatum was dissected and immediately frozen on dry ice and store at −70° C. until extraction. Brain regions obtained from each animal were weighed, ultrasonicated in 10% perchloric acid containing 10 ng/mg of the internal standard dihydroxybenzilamine, and centrifuged at 20,000 g for 10 min. The levels of DA and its metabolites 3,4-dihydroxyphenylacetic acid (DOPAC) and homovanillic acid (HVA) in brain tissue extracts were determined by HPLC coupled with electrochemical detection as described (Ali et al., 1994). Briefly, striatal tissues were sonicated in 0.2 M perchloric acid (20% W/V) containing the internal standard 3,4-dihydroxybenzylamine (10 mg wet tissue/ml) The homogenate was centrifuged and a 20-μl aliquot of the supernatant was injected into the HPLC equipped with a 3-μm C18 column. The mobile phase was comprised of 26 ml of acetonitrile, 21 ml of tetrahydrofuran and 960 ml of 0.15 M monochloroacetic acid (pH 3.0) containing 50 mg/l of EDTA and 200 mg/l of sodium octyl sulfate. The amount of DA, DOPAC and HVA were determined by comparison of peak height ratio of tissue sample with standards, and were expressed in nanograms per gram of wet weight of tissue.

[5] = tested on: tyrosine hydroxylase (TH); test: TH activity; format: in vivo, mice; details: for TH activity: drug alone (no MPTP); for effect on MPTP-induced decrease of TH activity: one day after final MPTP, vs. MPTP alone
[6] = tested on: tyrosine hydroxylase (TH); test: Western blotting for pan-TH and TH phosphorylation; format: in vivo, mice; details: for effect on MPTP-induced decrease of TH phosphorylation at Ser19, Ser31 and Ser40: pre-treatment; for effect on MPTP-induced decrease of TH phosphorylation at Ser19, Ser31 and Ser40 / effect on MPTP-induced decrease of TH-immunoreactivity (TH-IR): vs. MPTP alone
Protocol: (§2) The western blot assays were performed as described previously (thong et al., 1997). Tissues were homogenized in lysis buffer, containing 200 mM Tris HCl (pH 6.8), 1% SDS, 5 mM ethylene glycol tetraacetic acid, 5 mM ethylenediaminetetraacetic acid, 10% glycerol, 1× phosphatase inhibitor cocktail I, 1× protease inhibitor cocktail. The supernatant fraction was subsequently centrifuged at 30,000×g for 30 min. The resulting pellet was resuspended in the sample buffer. Proteins (20-50 ug/lane) were separated by 6%, 8%, 10% or 15% sodium dodecyl sulfate-polyacrylamide gel electrophoresis and transferred onto the nitrocellulose membranes. Following transfer, the nitrocellulose membranes were preincubated with 5% non-fat milk and incubated overnight at 4° C. with anti-β-actin (Sigma, 1:50000), anti-TH (Chemicon, 1:5000), anti-TH phosphoser19 (Chemicon, 1:5000), anti-TH phosphoser31 (Chemicon, 1:500), anti-TH phosphoser40 (Chemicon, 1:500), anti-F 4/80 (Serotec, 1:500), anti-BDNF (Chemicon, 1:500), anti-GDNF (Santa-Cruz, 1:250), anti-Akt (Cell signaling, 1:1000), anti-phospho Akt ser 473 (Cell signaling, 1:1000), anti-PI3K (Cell signaling, 1:1000), anti-phospho PI3K (Cell signaling, 1:500) and anti-α-synuclein (BD Transduction, 1:500) antibody. After incubation with primary antibody, membranes were incubated with the secondary anti-rabbit IgG, Horseradish Peroxidase (1:1000 dilution, Amersham) or anti-mouse IgG, Horseradish Peroxidase (1:1000, Sigma), or anti-goat IgG, Horseradish Peroxidase (1:1000, Sigma) for 2 h, washed. Subsequently visualized with the Amersham ECL system (Amersham, Arlington Heights, Ill., USA).

[7] = tested on: F4/80, a marker of reactive microglia; test: F4/80 expression (western blot); format: in vivo, mice; details: striatum; pre-treatment; vs. MPTP alone
Protocol: as §2, with “After incubation with primary antibody, membranes were incubated with the secondary anti-rabbit IgG, Horseradish Peroxidase (1:1000 dilution, Amersham) or anti-mouse IgG, Horseradish Peroxidase (1:1000, Sigma), or anti-goat IgG, Horseradish Peroxidase (1:1000, Sigma) for 2 h, washed. Subsequently visualized with the Amersham ECL system (Amersham, Arlington Heights, Ill., USA).” left out

α-synuclein = test: Oligomergic α-synuclein expression (western blot); format: in vivo, mice; details: striatum; for effect on MPTP-induced increase in oligomergic α-synuclein: vs. MPTP alone
Protocol: as §2

[8] = tested on: brain derived neurotrophic factor (BDNF); test: BDNF expression (western blot); format: in vivo, mice; details: striatum; for effect on MPTP-induced reduction of BDNF expression: pre-treatment, vs. MPTP alone
Protocol: as §2

MPTP-treated mice [9] = test: Rota-rod test in MPTP-treated mice; details: 2.5 mg/kg i.p.; for effect on MPTP-impaired Rota-rod performance: vs. MPTP alone
Protocol: The apparatus (Ugo Basile model 7650) consisted of a base platform and a rotating rod with a nonslippery surface. The rod was placed at a height of 15 cm from the base. The rod, 30 cm in length, was divided into 5 equal sections by 6 opaque disks (so that the subjects cannot be distracted by one another). To assess motor performance, the mice were first trained on the apparatus 2 minutes at a rate 4 r.p.m. per 30 s prior to the test. The test was performed 30 minutes after training and an accelerating paradigm was applied at a rate 4 r.p.m. per 30 s, starting from 4 r.p.m. to a maximum speed of 40 r.p.m., then the rotation speed was kept constant at 40 r.p.m. for a maximum of 300 s. The duration for which the animal could maintain balance on the rotating drum was measured as the rotarod latency, with a maximal cut-off time of 300 s.

[10] = striatum and SN, vs. selegiline+MPTP

Row | Compound | locomotor patterns (mice [1]) | locomotor activities (mice [1]) | conditioned place preference (CPP) (mice [2]) | effect on MPTP-induced hypolocomotor activity (MPTP-treated mice [3]) | effect on MPTP-induced increase of DA turnover rate [4] | effect on MPTP-induced reduction of DOPAC [4] | effect on MPTP-induced reduction of HVA [4] | effect on MPTP-induced reduction of dopamine (DA) [4] | levels of DA, DOPAC, HVA [4] | TH activity [5] | effect on MPTP-induced decrease of TH activity ([5]; striatum) | effect on MPTP-induced decrease of TH activity ([5]; substantia nigra (SN)) | effect on MPTP-induced decrease of TH phosphorylation at Ser19, Ser31 and Ser40 ([6]; SN) | effect on MPTP-induced decrease of TH-immunoreactivity (TH-IR) ([6]; SN, western blotting) | effect on MPTP-induced decrease of TH phosphorylation at Ser19, Ser31 and Ser40 ([6]; striatum) | effect on MPTP-induced decrease of TH-immunoreactivity (TH-IR) ([6]; striatum, western blotting) | effect on MPTP-induced increase in F4/80-immunoreactivity [7] | effect on MPTP-induced increase in oligomergic α-synuclein (α-synuclein) | effect on MPTP-induced reduction of BDNF expression [8] | effect on MPTP-impaired Rota-rod performance (MPTP-treated mice [9]) | also measured
1 | C#CCN(C)CCc1ccccc1 [MPPE, N-methyl-N-propynyl-2-phenylethylamine] | comparable to those by saline; also recorded: did not show these behavioural side effects | did not significantly alter locomotor activities | did not significantly change | significantly attenuated | attenuated | attenuated | attenuated | significantly attenuated | did not show any significant effect | did not show any significant effect | attenuated | attenuated | reversed | attenuated | reversed | attenuated | significantly blocked increase in F4/80-immunoreactivity induced by MPTP; also recorded: attenuated | significantly attenuated | significantly attenuated | significantly attenuated | attenuation of MPTP-induced hypolocomotor activity compared with selegiline (MPTP-treated mice [3]; 2.5 mg/kg i.p., vs. selegiline+MPTP): more pronounced in the MPPE-pretreated mice than selegiline-pretreated case; attenuation for DA level compared with selegiline ([4]; vs. selegiline+MPTP): more pronounced in the MPPE-treated mice; attenuation of DA turnover rate increase compared with selegiline ([4]; vs. selegiline+MPTP): more evident than by selegiline; attenuation of TH activity decrease compared with selegiline [5, 10]: more effective; effect on TH phosphorylation at Ser19, Ser31 and Ser40 compared with selegiline [6, 10]: more effective; attenuation of TH-IR decrease compared with selegiline ([6]; striatum and SN, western blotting, vs. selegiline+MPTP): more evident; protection against α-synuclein increase compared with selegiline (α-synuclein; vs. selegiline+MPTP): more protective effect; enhancement of BDNF expression compared with selegiline ([8]; vs. selegiline+MPTP): more effective; attenuation of MPTP-reduced rota-rod performance compared with selegiline (MPTP-treated mice [9]; vs. selegiline-pretreated): more pronounced in the MPPE-pretreated mice than selegiline-pretreated case
2 | C#CCN(C)[C@H](C)Cc1ccccc1 [selegiline, reference compound] | circling locomotor patterns | significantly increased | significantly increased compared with saline | significantly attenuated | attenuated | attenuated | attenuated | significantly attenuated | did not show any significant effect | did not show any significant effect | attenuated | attenuated | reversed | attenuated | reversed | attenuated | significantly blocked increase in F4/80-immunoreactivity induced by MPTP; also recorded: attenuated | significantly attenuated | significantly attenuated | significantly attenuated | locomotor patterns (mice [1]; listed as Sel): typical circling locomotor patterns
